In article PMC10233829 (ACS Omega, 2023):
Values after ≈ are worked out from the molar mass of the structure shown.

Legend:
S. aureus 180 = test: MIC, twofold microdilution, clinical strain; format: cell-based; conditions: Staphylococcus aureus, 18 h
E. cloacae 8 = test: MIC, twofold microdilution, clinical strain; format: cell-based, Escherichia cloacae; conditions: Enterobacter cloacae, 8; clinical strain, 18 h
S. pasteuri KR 4358 = test: MIC, twofold microdilution, clinical strain; format: cell-based; conditions: Staphylococcus pasteuri, KR4358, 18 h
E. coli 520 = test: MIC, twofold microdilution, clinical strain; format: cell-based; conditions: Escherichia coli, 18 h
S. epidermidis 4341 = test: MIC, twofold microdilution, clinical strain; format: cell-based; conditions: Staphylococcus epidermidis, 18 h
S. aureus NCTC 4163 = test: MIC, twofold microdilution, standard strain; format: cell-based; conditions: Staphylococcus aureus, NCTC4163, 18 h
E. coli ATCC 25922 = test: MIC, twofold microdilution, standard strain; format: cell-based, Escherichia coli; conditions: for MIC: Escherichia coli, ATCC25922, standard strain, 18 h
[1] = MTT assay, cytotoxic activity; format: cell-based; conditions: human, HaCaT cells (immortal keratinocytes); MTT, 72 h, normal cell line; read-out: IC50 HaCaT
Procedure, shortened: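 MTT assay on cells grown at 37 °C/5% CO2. Viability is expressed as relative MTT reduction: test absorbance divided by untreated-control absorbance, ×100%.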

S. aureus 5595 = test: MIC, twofold microdilution, clinical strain; format: cell-based; conditions: Staphylococcus aureus, 18 h
S. epidermidis 5253 = test: MIC, twofold microdilution, clinical strain; format: cell-based, Staphylococcus epidermidis; conditions: Staphylococcus epidermidis, 5253, 18 h
S. aureus ATCC 25923 = test: MIC, twofold microdilution, standard strain; format: cell-based; conditions: Staphylococcus aureus, ATCC25923, 18 h
K. pneumoniae 510 = test: MIC, twofold microdilution, clinical strain; format: cell-based, Klebsiella pneumoniae; conditions: for MIC: Klebsiella pneumoniae, 510, clinical strain, 18 h
E. coli 600 = test: MIC, twofold microdilution, clinical strain; format: cell-based, Escherichia coli; conditions: Escherichia coli, 600, 18 h
P. aeruginosa 659 = test: MIC, twofold microdilution, clinical strain; format: cell-based; conditions: Pseudomonas aeruginosa, 18 h
[2] = tested on: S. epidermidis ATCC 12228; test: MIC, twofold microdilution, standard strain; format: cell-based; conditions: Staphylococcus epidermidis, ATCC12228, 18 h
S. epidermidis KR4243/1 = test: MIC, twofold microdilution, clinical strain; format: cell-based; conditions: Staphylococcus epidermidis, 18 h
[3] = tested on: M. tuberculosis Spec. 192; test: Tuberculostatic activity, Microplate Alamar Blue Assay (MIC); format: cell-based; conditions: Mycobacterium tuberculosis, MABA, read-out: MIC M. tuberculosis Spec. 192 (sensitive to tuberculostatics)
S. aureus T5595 = test: MIC, twofold microdilution, clinical strain; format: cell-based, Staphylococcus aureus; conditions: for MIC: Staphylococcus aureus, T5595, 18 h
[4] = tested on: clinical bacterial strains; test: MIC, clinical isolates as groups of strains; format: cell-based
PC3 cells = test: MTT assay, cytotoxic activity; format: cell-based, human; conditions: for IC50: MTT, 72 h
Procedure, shortened: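 PC3 cells were grown at 37 °C/5% CO2 and exposed to test compounds. Viability came from MTT reduction, as test absorbance over untreated-control absorbance × 100%.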

M. tuberculosis H37Rv = test: Tuberculostatic activity, Microplate Alamar Blue Assay (MIC); format: cell-based, Mycobacterium tuberculosis; conditions: Mycobacterium tuberculosis, H37RV; MABA; read-out: MIC M. tuberculosis H37Rv
S. aureus T5591 = test: MIC, twofold microdilution, clinical strain; format: cell-based, Staphylococcus aureus; conditions: for MIC: Staphylococcus aureus, T5591, 18 h
E. coli 951 = test: MIC, twofold microdilution, clinical strain; format: cell-based; conditions: Escherichia coli, 18 h
P. aeruginosa 37 = test: MIC, twofold microdilution, clinical strain; format: cell-based; conditions: Pseudomonas aeruginosa, 18 h
S. aureus ATCC 29213 = test: MIC, twofold microdilution, standard strain; format: cell-based; conditions: Staphylococcus aureus, ATCC29213, 18 h
K. pneumoniae 28 = test: MIC, twofold microdilution, clinical strain; format: cell-based; conditions: Klebsiella pneumoniae, 18 h
S. aureus ATCC 6538 = test: MIC, twofold microdilution, standard strain; format: cell-based, Staphylococcus aureus; conditions: for MIC: Staphylococcus aureus, ATCC6538, standard strain, 18 h
P. aeruginosa ATCC 15442 = test: MIC, twofold microdilution, standard strain; format: cell-based, Pseudomonas aeruginosa; conditions: for MIC: Pseudomonas aeruginosa, ATCC15442, standard strain, 18 h
[5] = tested on: S. epidermidis ATCC 35984; test: MIC, twofold microdilution, standard strain; format: cell-based; conditions: Staphylococcus epidermidis, ATCC35984, 18 h

SMILES	MIC (S. aureus 180)	MIC (E. cloacae 8)	MIC (S. pasteuri KR 4358)	MIC (E. coli 520)	MIC (S. epidermidis 4341)	MIC (S. aureus NCTC 4163)	MIC (E. coli ATCC 25922)	IC50 at 72 h [1]	MIC (S. aureus 5595)	MIC (S. epidermidis 5253)	MIC (S. aureus ATCC 25923)	MIC (K. pneumoniae 510)	MIC (E. coli 600)	MIC (P. aeruginosa 659)	MIC [2]	MIC (S. epidermidis KR4243/1)	MIC [3]	MIC (S. aureus T5595)	IC50 (PC3 cells; Homo sapiens, PC-3, 72 h)	MIC (M. tuberculosis H37Rv)	also measured
O=C(O)c1cn(C2CC2)c2cc(N3CCN(C(=O)CCl)CC3)c(F)cc2c1=O [Compound 3, 7-[4-(2-Chloroacetyl)-piperazin-1-yl]-1-cyclopropyl-6-fluoro-4-oxo-1,4-dihydro-quinoline-3-carboxylic Acid]	0.4 µg/mL (≈ 0.981 µM)	0.8 µg/mL (≈ 1.96 µM)	0.2 µg/mL (≈ 0.49 µM)	0.4 µg/mL (≈ 0.981 µM)	12.8 µg/mL (≈ 31.4 µM)	0.1 µg/mL (≈ 0.245 µM)	0.2 µg/mL (≈ 0.49 µM)	35.7 ± 8.2 µM	0.4 µg/mL (≈ 0.981 µM)	> 25.6 µg/mL	0.2 µg/mL (≈ 0.49 µM)	25.6 µg/mL (≈ 62.8 µM)	0.4 µg/mL (≈ 0.981 µM)	> 25.6 µg/mL	0.2 µg/mL (≈ 0.49 µM)	0.2 µg/mL (≈ 0.49 µM)	2 µg/mL (≈ 4.9 µM)	0.1 to 0.2 µg/mL (≈ 0.245 to 0.49 µM)	2.02 to 4.8 µM	4 µg/mL (≈ 9.81 µM)	MIC S. aureus T5595 (S. aureus T5595; 18 h): 0.2 µg/mL (≈ 0.49 µM); times more powerful than CP ([4]; S. aureus T5595 and T5591): 1.25–2.5 times; MIC ([4]; clinical strains, read-out: MIC against selected E. coli and E. cloacae strains): 0.1 to 0.8 µg/mL (≈ 0.245 to 1.96 µM); IC50 (PC3 cells): 2.02 ± 0.1 µM; MIC S. aureus T5591 (S. aureus T5591; 18 h): 0.1 µg/mL (≈ 0.245 µM); MIC (S. aureus T5591): 0.1 to 0.2 µg/mL (≈ 0.245 to 0.49 µM); MIC (E. coli 951): > 25.6 µg/mL; MIC (P. aeruginosa 37): > 25.6 µg/mL; MIC (S. aureus ATCC 29213): 0.2 µg/mL (≈ 0.49 µM); MIC (K. pneumoniae 28): > 25.6 µg/mL; MIC (S. aureus ATCC 6538): 0.2 µg/mL (≈ 0.49 µM); MIC (P. aeruginosa ATCC 15442): 6.4 µg/mL (≈ 15.7 µM); MIC [5]: 0.1 µg/mL (≈ 0.245 µM)
O=C(O)c1cn(C2CC2)c2cc(N3CCN(CCCCCCCCCCC(=O)N4CCN(c5cc6c(cc5F)c(=O)c(C(=O)O)cn6C5CC5)CC4)CC3)c(F)cc2c1=O [Compound 21, CP–Undecanoyl–CP Dimer]	> 25.6 µg/mL	> 25.6 µg/mL	> 25.6 µg/mL	> 25.6 µg/mL	> 25.6 µg/mL	12.8 µg/mL (≈ 15.4 µM)	25.6 µg/mL (≈ 30.9 µM)	73.2 ± 10.1 µM	> 25.6 µg/mL	> 25.6 µg/mL	12.8 µg/mL (≈ 15.4 µM)	> 25.6 µg/mL	> 25.6 µg/mL	> 25.6 µg/mL	25.6 µg/mL (≈ 30.9 µM)	> 25.6 µg/mL	2 µg/mL (≈ 2.41 µM)	> 25.6 µg/mL	4.8 ± 0.1 µM	2 µg/mL (≈ 2.41 µM)	fold stronger cytotoxic properties than cisplatin (PC3 cells; PC3): 2.75 fold; MIC (S. aureus T5591): > 25.6 µg/mL; MIC (E. coli 951): > 25.6 µg/mL; MIC (P. aeruginosa 37): > 25.6 µg/mL; MIC (S. aureus ATCC 29213): 12.8 µg/mL (≈ 15.4 µM); MIC (K. pneumoniae 28): > 25.6 µg/mL; MIC (S. aureus ATCC 6538): 12.8 µg/mL (≈ 15.4 µM); MIC (P. aeruginosa ATCC 15442): > 25.6 µg/mL; MIC [5]: 12.8 µg/mL (≈ 15.4 µM)
O=C(O)c1cn(C2CC2)c2cc(N3CCN(C(=O)CCCCBr)CC3)c(F)cc2c1=O [Compound 11, 7-[4-(5-Bromopentanoyl)-piperazin-1-yl]-1-cyclopropyl-6-fluoro-4-oxo-1,4-dihydro-quinoline-3-carboxylic Acid]	0.8 µg/mL (≈ 1.62 µM)	0.05 µg/mL (≈ 0.101 µM)	0.2 µg/mL (≈ 0.405 µM)	0.1 µg/mL (≈ 0.202 µM)	25.6 µg/mL (≈ 51.8 µM)	0.1 µg/mL (≈ 0.202 µM)	0.025 µg/mL (≈ 0.0506 µM)	80.1 ± 8.1 µM	0.8 µg/mL (≈ 1.62 µM)	> 25.6 µg/mL	0.4 µg/mL (≈ 0.809 µM)	6.4 µg/mL (≈ 12.9 µM)	0.05 µg/mL (≈ 0.101 µM)	0.8 µg/mL (≈ 1.62 µM)	0.1 µg/mL (≈ 0.202 µM)	0.4 µg/mL (≈ 0.809 µM)	0.5 µg/mL (≈ 1.01 µM)	0.8 µg/mL (≈ 1.62 µM)	81.7 ± 8.9 µM	0.5 µg/mL (≈ 1.01 µM)	MIC used in biofilm eradication assay, E. coli ATCC 25922 (E. coli ATCC 25922; Table S1, MIC): 0.025 µg/mL (≈ 0.0506 µM); share of the reference (CP) activity (K. pneumoniae 510; Klebsiella pneumoniae rods): 62.5%; share of CP inhibitory activity ([4]; S. aureus 180 and 5595): 62.5%; MIC (S. aureus T5591): 0.8 µg/mL (≈ 1.62 µM); MIC (E. coli 951): 0.4 µg/mL (≈ 0.809 µM); MIC (P. aeruginosa 37): 0.8 µg/mL (≈ 1.62 µM); MIC (S. aureus ATCC 29213): 0.2 µg/mL (≈ 0.405 µM); MIC (K. pneumoniae 28): > 25.6 µg/mL; MIC (S. aureus ATCC 6538): 0.1 µg/mL (≈ 0.202 µM); MIC used in biofilm eradication assay, S. aureus 6538 (S. aureus ATCC 6538; Table S1, MIC): 0.100 µg/mL (≈ 0.202 µM); MIC (P. aeruginosa ATCC 15442): 0.1 µg/mL (≈ 0.202 µM); MIC used in biofilm eradication assay, P. aeruginosa 15442 (P. aeruginosa ATCC 15442; Table S1, MIC): 0.100 µg/mL (≈ 0.202 µM); MIC [5]: 0.1 µg/mL (≈ 0.202 µM)
